Experimental data: PubChem BioAssay (NCI)
Several values for one entry are separate records, joined by “and”; a condition that tells them apart may be missing. Equal values may be shown once.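 Assay format: 96-well plates, 48-hour exposure. Abbreviation: GI50, concentration required for 50% inhibition of growth. TGI: total growth inhibition.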

Experiments:
Assay in all cases: NCI-60 cell line screen, 48 h
SR leukemia = system: SR leukemia
HCC-2998 colon = system: HCC-2998 colon
786-0 renal = system: 786-0 renal
U251 CNS = system: U251 CNS
HL-60(TB) leukemia = system: HL-60(TB) leukemia
TK-10 renal = system: TK-10 renal
MOLT-4 leukemia = system: MOLT-4 leukemia
DU-145 prostate = system: DU-145 prostate
BT-549 breast = system: BT-549 breast
NCI/ADR-RES ovarian = system: NCI/ADR-RES ovarian

Structure (SMILES)	TGI (SR leukemia)	TGI (HCC-2998 colon)	TGI (786-0 renal)	TGI (U251 CNS)	TGI (HL-60(TB) leukemia)	TGI (TK-10 renal)	TGI (MOLT-4 leukemia)	GI50 (HL-60(TB) leukemia) [µM]	GI50 (SR leukemia) [µM]	GI50 (HCC-2998 colon) [µM]	GI50 (786-0 renal) [µM]	GI50 (U251 CNS) [µM]	GI50 (MOLT-4 leukemia) [µM]	GI50 (TK-10 renal) [µM]	GI50 (DU-145 prostate) [µM]	TGI (DU-145 prostate) [µM]	GI50 (BT-549 breast) [µM]	TGI (BT-549 breast) [µM]	GI50 (NCI/ADR-RES ovarian) [µM]	TGI (NCI/ADR-RES ovarian) [µM]
Cc1cccc(CC(C)(C)C)c1NC(=O)C(=O)C(C(=O)c1ccc2ccccc2c1)C1OC(=O)c2ccccc21 (stereo unspecified)	> 100 µM	25.2 µM	21.7 µM	17.8 µM																
O=C(OCc1nc2ccc(Br)cc2c(=O)n1-c1ccccc1)c1ccccc1O		> 100 µM	> 100 µM	> 100 µM	> 100 µM	> 100 µM	> 100 µM													
CCC1NCC(=O)c2c1[nH]c1ccccc21 (stereo unspecified)	> 100 µM	> 100 µM	> 100 µM	> 100 µM	> 100 µM	> 100 µM	> 100 µM													
COC(=O)C(=O)C(C(=O)C(=O)Nc1ccccc1C(N)=O)c1nc2ccc(C(=O)c3ccccc3)cc2[nH]c1=O (stereo unspecified)	> 100 µM	> 100 µM	> 100 µM	> 100 µM		> 100 µM	> 100 µM													
COc1ccccc1NC(=O)C(=O)C1C(=O)Nc2ccccc2S1=O (stereo unspecified)	> 100 µM	> 100 µM	> 100 µM	> 100 µM	> 100 µM	> 100 µM	> 100 µM													
O=C1/C(=C/c2ccccc2)CN(C(=O)Oc2ccc([N+](=O)[O-])cc2)C/C1=C\c1ccccc1	5.54 µM and 0.775 µM	5.99 µM and 3.3 µM	3.55 µM	4.2 µM and 3.31 µM	3.97 µM and 5.9 µM		4.83 µM and 4.45 µM	1.73	0.261	1.33	1.74	1.56	1.21							
CCOC(=N)CC(=O)NC(C)c1ccccc1 (stereo unspecified)	> 100 µM	> 100 µM	> 100 µM	> 100 µM	> 100 µM	> 100 µM	> 100 µM													
CCCCCCCCCCCCCCCC(=O)N[C@H]1CCc2cc(OC)c(OC)c(OC)c2-c2ccc(SC)c(=O)cc21	8.28 µM and 13.2 µM	1.87 µM and 6.82 µM	8.24 µM and 12.9 µM	8.6 µM and 9.32 µM	1.35 µM and 6.82 µM	35.8 µM and > 100 µM	19.6 µM and 13.1 µM	2.01	0.597	2.42	3.31	2.64	3.21	27.9						
COc1ccc(N(Cc2cc(OC)c(OC)c(OC)c2)C2OC(=O)c3ccccc32)cc1 (stereo unspecified)	> 100 µM	> 28.5 µM	> 100 µM	> 34.7 µM	2.25 µM	> 100 µM	> 100 µM	0.308	0.456	1.57	0.701	0.385	0.661		0.886	54.3	0.428	> 100		
COC(=O)C1=C(O)C(C(=O)OC)[C@@]2(O)[C@@H](C(=O)OC)C(c3ccc(OC(=O)C(CC(C)C)NC(C)=O)cc3)C[C@@H]1[C@@H]2C(=O)OC (stereo partly specified)		52 µM	> 100 µM	76.4 µM	> 100 µM	> 100 µM	97.2 µM	43.9		19	46.2	26.5	48.3	57.4			33.6	> 100	39	> 100
CCOC(=O)NNC(=O)NC12CC3CC(CC(C3)C1)C2		> 100 µM	> 100 µM	> 100 µM		> 100 µM	> 100 µM													
Cn1cc(-c2nn3cc(-c4cccs4)nc3s2)c2cc(F)ccc21		33.9 µM	52.3 µM	17.9 µM	15.5 µM	19.4 µM		1.34		5.64	7.62	2.76		4.92	3.67	31.6	5.54	77.4	0.991	19.1
COc1ccc(-n2nc(C)c3c2N(C)C2(C)C[C@@H]4C3(C)[C@@H]3CC4(C2)N(C)c2c(c(C)nn2-c2ccc(OC)cc2)[C@H]3C)cc1 (stereo partly specified)		> 100 µM	29.6 µM	22.5 µM		21.3 µM				9.65	5.47	3.94		4.77	23	> 100	4.17	> 100	8.03	> 100
O=C1CC2Sc3ccccc3N=C2N1c1ccc(Cl)cc1Cl (stereo unspecified)		> 100 µM	> 100 µM	> 100 µM	72.1 µM	> 100 µM	> 100 µM													
CCCCCCCCC(=O)NCCCNCCCNC(=O)CCCCCCCC	5.81 µM	6.67 µM	3.52 µM	8.92 µM	3.77 µM	30.2 µM	10.4 µM													
OCCCCC#Cc1ccccc1C#Cc1cnccn1	> 100 µM	> 100 µM	> 100 µM	> 100 µM		> 100 µM	> 100 µM		28.1	33	34.7	37.8	29.8	47.7	13.8	> 100	17.4	55.2	25.1	92.2
Clc1ccccc1C1=NN(c2ccccc2)C2c3cc(Br)ccc3OCC12 (stereo unspecified)		> 100 µM	> 100 µM	> 100 µM	> 100 µM	> 100 µM	> 100 µM													
CC1SC2(CCCCC2)N(NC(=O)c2[nH]c3ccc(F)cc3c2-c2ccccc2)C1=O (stereo unspecified)		> 100 µM	89.2 µM	> 100 µM		> 100 µM	> 100 µM			> 100	28.4	48.5	> 100	35.3	> 100	> 100	> 100	> 100		
Cc1ns/c(=N\C(=S)N(C)C)n1C	> 100 µM	> 100 µM	> 100 µM	> 100 µM	> 100 µM	> 100 µM	> 100 µM													
N#CC(=C=[N-])[n+]1ccc(Cl)cc1	62.2 µM		37.2 µM	29.7 µM	20.4 µM	45.8 µM	> 100 µM													
O=C1c2cccc3cccc(c23)C(=O)N1CCCN1CCN(CCCN2C(=O)c3cccc4cccc(c34)C2=O)CC1		> 100 µM	> 100 µM	> 100 µM	> 100 µM	> 100 µM	> 100 µM													
